Data from patent US5747500A, “Antiviral 2, 4-pyrimidinedione derivatives” (priority 1993, dated 1998).
Converted amounts (≈) assume the structure as drawn.

How the values were obtained:
HIV = test: inhibition of HIV-induced cytopathic effect in MT-4 cells (MTT method); format: cell-based; details: for EC50: Human immunodeficiency virus 1, MT4, HIV-infected MT-4 cells, 1000 CCID50, 4 or 5 day incubation at 37° C., MTT method, read-out: ED50: Effective concentration for the inhibition of the proliferation of HIV by 50%; for S.I.: Selectivity index (CD50/ED50): ratio CD50/ED50, MT-4 cells
Procedure: The anti-HIV assays were based on the inhibition of the virus-induced cytopathic effect in MT-4 cells as described in J. Virol. Methods, 16, 171 (1987). Briefly, MT-4 cells were suspended in culture medium at 2.5×10^5 cells/ml and infected with 1000 CCID50 (50% cell culture infective dose) of HIV. Immediately, after virus infection, 100 μl of the cell suspension was brought into each well of a flat-bottomedmicrotiter tray containing various concentrations of the test compounds. After a 4 or 5 day incubation at 37° C., the number of viable cells was determined by the 3-(4,5-dimethylthiazol-2-yl)-2,5-diphenyltetrazoliumbromide (MTT) method, as disclosed in J. Virol. Methods, 20, 309 (1988).
ED50 : Effective concentration for the inhibition of the
proliferation of HIV by 50%

[1] = cytotoxicity: viability of mock-infected MT-4 host cells (MTT method); format: cell-based; details: human, mt-4 cells, read-out: CD50: Cytotoxic concentration that causes death of cells by 50%
Procedure: The cytotoxicity of the compounds of the present invention was assessed in parallel with their antiviral activity. It was based on the viability of mock-infected host cells as determined by the MTT methods (se J. Virol. Methods, 20, 309 (1988)).
CD50 : Cytotoxic concentration that causes death of cells by 50%

SMILES	EC50 (HIV)	S.I.: Selectivity index (CD50/ED50) (HIV)	CC50 [1]
C#CCn1c(Sc2ccccc2)c(CC)c(=O)[nH]c1=O [Example 1, 1-propargyl-5-ethyl-6-phenylthio-2,4-pyrimidinedione]	< 0.32 µg/mL	> 46	14.8 µg/mL (≈ 51.9 µM)
CC/C=C/Cn1c(Sc2cc(C)cc(C)c2)c(CC)c(=O)[nH]c1=O [Example 2, 1-(trans-2-pentenyl)-5-ethyl-6-(3,5-dimethylphenylthio)-2,4-pyrimidinedione]	< 0.32 µg/mL	> 29	8.73 µg/mL (≈ 25.3 µM)
Cc1cc(C)cc(Sc2c(C(C)C)c(=O)[nH]c(=O)n2CC#Cc2ccccc2)c1 [Example 3, 1-(3-phenyl-2-propynyl)-5-isopropyl-6-(3,5-dimethylphenylthio)-2,4-pyrimidinedione]	< 0.009 µg/mL	> 882	7.94 µg/mL (≈ 19.6 µM)
C=CCn1c(Cc2ccccc2)c(CC)c(=O)[nH]c1=O [Example 4, 1-allyl-5-ethyl-6-benzyl-2,4-pyrimidinedione]	< 0.32 µg/mL	> 164	52.5 µg/mL (≈ 194 µM)
C/C=C/Cn1c(Cc2cc(C)cc(C)c2)c(CC)c(=O)[nH]c1=O [Example 5, 1-(trans-2-butenyl)-5-ethyl-6-(3,5-dimethylbenzyl)-2,4-pyrimidinedione]	< 0.032 µg/mL	> 1,518	48.6 µg/mL (≈ 156 µM)
Cc1cc(C)cc(Cc2c(C(C)C)c(=O)[nH]c(=O)n2C/C=C/c2ccccc2)c1 [Example 6, 1-(trans-cinnamyl)-5-isopropyl-6-(3,5-dimethylbenzyl)-2,4-pyrimidinedione]	< 0.009 µg/mL	> 892	8.03 µg/mL (≈ 20.7 µM)
CCc1c(C(=O)c2cc(C)cc(C)c2)n(CC=C(C)C)c(=O)[nH]c1=O [Example 7, 1-(3-methyl-2-butenyl)-5-ethyl-6-(3,5-dimethylbenzoyl)-2,4-pyrimidinedione]	< 0.33 µg/mL	> 84	27.8 µg/mL (≈ 81.8 µM)
CCc1c(C(=O)c2cc(C)cc(C)c2)n(CC=CC(=O)OC)c(=O)[nH]c1=O [Example 8, 1-(methoxycarbonylallyl)-5-ethyl-6-(3,5-dimethylbenzoyl)-2,4-pyrimidinedione]	< 0.19 µg/mL	> 143	27.2 µg/mL (≈ 73.5 µM)
Cc1cc(C)cc(C(=O)c2c(C(C)C)c(=O)[nH]c(=O)n2C/C=C/CCl)c1 [Example 9, 1-(4-chloro-trans-2-butenyl)-5-isopropyl-6-(3,5-dimethylbenzoyl)-2,4-pyrimidinedione]	< 0.009 µg/mL	> 708	6.38 µg/mL (≈ 17 µM)
C/C=C/Cn1c(Oc2cc(C)cc(C)c2)c(CC)c(=O)[nH]c1=O [Example 10, 1-(trans-2-butenyl)-5-ethyl-6-(3,5-dimethylphenoxy)-2,4-pyrimidinedione]	< 0.01 µg/mL	> 1,939	19.4 µg/mL (≈ 61.7 µM)
CC#CCn1c(Oc2cc(C)cc(C)c2)c(C(C)C)c(=O)[nH]c1=O [Example 11, 1-(2-butynyl)-5-isopropyl-6-(3,5-dimethylphenoxy)-2,4-pyrimidinedione]	< 0.32 µg/mL	> 124	39.9 µg/mL (≈ 122 µM)
C=CCn1c(Sc2ccccc2)c(CC)c(=O)[nH]c1=O [Example 12, 1-allyl-5-ethyl-6-phenylthio-2,4-pyrimidinedione]	< 0.32 µg/mL	> 54	17.5 µg/mL (≈ 60.6 µM)
C/C=C/Cn1c(Sc2ccccc2)c(CC)c(=O)[nH]c1=O [Example 13]	< 0.32 µg/mL	> 50	16.2 µg/mL (≈ 53.5 µM)
CCc1c(Sc2ccccc2)n(C/C=C/c2ccccc2)c(=O)[nH]c1=O [Example 14]	< 0.032 µg/mL	> 180	5.77 µg/mL (≈ 15.8 µM)
CCc1c(Sc2ccccc2)n(CC=C(C)C)c(=O)[nH]c1=O [Example 15, 1-(3-methyl-2-butenyl)-5-ethyl-6-phenylthio-2,4-pyrimidinedione]	0.36 µg/mL (≈ 1.14 µM)	31	11.3 µg/mL (≈ 35.6 µM)
CCOC/C=C\Cn1c(Sc2ccccc2)c(CC)c(=O)[nH]c1=O [Example 16]	2.78 µg/mL (≈ 8.02 µM)	6.85	19 µg/mL (≈ 54.9 µM)
CCc1c(Sc2ccccc2)n(C/C=C\COCc2ccccc2)c(=O)[nH]c1=O [Example 17]	3.68 µg/mL (≈ 9.01 µM)	1.57	5.79 µg/mL (≈ 14.2 µM)
C=CCn1c(Sc2cc(C)cc(C)c2)c(CC)c(=O)[nH]c1=O [Example 18, 1-allyl-5-ethyl-6-(3,5-dimethylphenylthio)-2,4-pyrimidinedione]	< 0.032 µg/mL	> 121	3.9 µg/mL (≈ 12.3 µM)
C/C=C/Cn1c(Sc2cc(C)cc(C)c2)c(CC)c(=O)[nH]c1=O [Example 19]		> 971	8.74 µg/mL (≈ 26.4 µM)
CCc1c(Sc2cc(C)cc(C)c2)n(C/C=C/c2ccccc2)c(=O)[nH]c1=O [Example 20]	< 0.009 µg/mL	> 578	5.21 µg/mL (≈ 13.3 µM)

SMILES	EC50 (HIV)	S.I.: Selectivity index (CD50/ED50) (HIV)	CC50 [1]
CCc1c(Sc2cc(C)cc(C)c2)n(C/C=C/C(=O)OC)c(=O)[nH]c1=O [Example 21]	< 0.32 µg/mL	> 129	41.4 µg/mL (≈ 111 µM)
CCc1c(Sc2cc(C)cc(C)c2)n(C/C=C/CCl)c(=O)[nH]c1=O [Example 22]	< 0.36 µg/mL	> 93	33.8 µg/mL (≈ 92.6 µM)
CCc1c(Sc2cc(C)cc(C)c2)n(C/C=C\CCl)c(=O)[nH]c1=O [Example 23]	< 0.93 µg/mL	> 41	38.2 µg/mL (≈ 105 µM)
C#CCn1c(Sc2cc(C)cc(C)c2)c(CC)c(=O)[nH]c1=O [Example 24, 1-propargyl-5-ethyl-6-(3,5-dimethylphenylthio)-2,4-pyrimidinedione]	< 0.032 µg/mL	> 56	1.81 µg/mL (≈ 5.76 µM)
CC#CCn1c(Sc2cc(C)cc(C)c2)c(CC)c(=O)[nH]c1=O [Example 25, 1-(2-butynyl)-5-ethyl-6-(3,5-dimethylphenylthio)-2,4-pyrimidinedione]	< 0.69 µg/mL	> 90	62.5 µg/mL (≈ 190 µM)
CCc1c(Sc2cc(C)cc(C)c2)n(CC#Cc2ccccc2)c(=O)[nH]c1=O [Example 26, 1-(3-phenyl-2-propynyl)-5-ethyl-6-(3,5-dimethylphenylthio)-2,4-pyrimidinedione]	< 0.009 µg/mL	> 547	4.93 µg/mL (≈ 12.6 µM)
C/C=C/Cn1c(Sc2cc(C)cc(C)c2)c(C(C)C)c(=O)[nH]c1=O [Example 27]	< 0.009 µg/mL	> 740	6.66 µg/mL (≈ 19.3 µM)
CC/C=C/Cn1c(Sc2cc(C)cc(C)c2)c(C(C)C)c(=O)[nH]c1=O [Example 28]	< 0.009 µg/mL	> 643	5.79 µg/mL (≈ 16.2 µM)
Cc1cc(C)cc(Sc2c(C(C)C)c(=O)[nH]c(=O)n2C/C=C/c2ccccc2)c1 [Example 29]	< 0.023 µg/mL	> 1,615	37.1 µg/mL (≈ 91.4 µM)
COC(=O)/C=C/Cn1c(Sc2cc(C)cc(C)c2)c(C(C)C)c(=O)[nH]c1=O [Example 30]	< 0.009 µg/mL	> 1,966	17.7 µg/mL (≈ 45.6 µM)
CC#CCn1c(Sc2cc(C)cc(C)c2)c(C(C)C)c(=O)[nH]c1=O [Example 31, 1-(2-butynyl)-5-isopropyl-6-(3,5-dimethylphenylthio)-2,4-pyrimidinedione]	< 0.32 µg/mL	> 52	16.9 µg/mL (≈ 49.5 µM)
C/C=C/Cn1c(Cc2ccccc2)c(CC)c(=O)[nH]c1=O [Example 32]	< 0.32 µg/mL	> 101	32.4 µg/mL (≈ 114 µM)
CCc1c(Cc2ccccc2)n(C/C=C/c2ccccc2)c(=O)[nH]c1=O [Example 33]	< 0.032 µg/mL	> 268	8.58 µg/mL (≈ 24.8 µM)
C=CCn1c(Cc2cc(C)cc(C)c2)c(CC)c(=O)[nH]c1=O [Example 34, 1-allyl-5-ethyl-6-(3,5-dimethylbenzyl)-2,4-pyrimidinedione]	< 0.32 µg/mL	> 38	12.3 µg/mL (≈ 41.3 µM)
CCc1c(Cc2cc(C)cc(C)c2)n(C/C=C/c2ccccc2)c(=O)[nH]c1=O [Example 35]	< 0.009 µg/mL	642	5.78 µg/mL (≈ 15.4 µM)
CCc1c(Cc2cc(C)cc(C)c2)n(CC=C(C)C)c(=O)[nH]c1=O [Example 36, 1-(3-methyl-2-butenyl)-5-ethyl-6-(3,5-dimethylbenzyl)-2,4-pyrimidinedione]	< 0.33 µg/mL	66	22.1 µg/mL (≈ 67.6 µM)
CCc1c(Cc2cc(C)cc(C)c2)n(C/C=C/C(=O)OC)c(=O)[nH]c1=O [Example 37]	1.64 µg/mL (≈ 4.6 µM)	7.6	12.5 µg/mL (≈ 35 µM)
C#CCn1c(Cc2cc(C)cc(C)c2)c(CC)c(=O)[nH]c1=O [Example 38, 1-propargyl-5-ethyl-6-(3,5-dimethylbenzyl)-2,4-pyrimidinedione]	< 0.32 µg/mL	> 75	24.1 µg/mL (≈ 81.5 µM)
CC#CCn1c(Cc2cc(C)cc(C)c2)c(CC)c(=O)[nH]c1=O [Example 39, 1-(2-butynyl)-5-ethyl-6-(3,5-dimethylbenzyl)-2,4-pyrimidinedione]	< 0.049 µg/mL	> 176	8.65 µg/mL (≈ 27.9 µM)
